The test system of one assay is NXS2 cells. Briefly: syngeneic model of NXS2 NB liver metastasis in A/J mice, liver weight. It is filed as in vivo, mouse. How it is done: Depletion of macrophages in 8-week-old A/J mice was performed clodronate liposomes or liposomes obtained from Liposoma (Liposoma BV, Amsterdam, the Netherlands) according to the manufacturer's instructions. Mice were given either clodronate liposomes or liposome i.p. 4 days before tumor cell injection and thereafter on days 0, 3, 7, 10, 14, 17, and 21 post-tumor cell inoculation. The effectiveness of macrophage depletion was determined by flow cytometry analysis of CD45+F4/80+CD11b+Ly6G-Ly6Clow-int cells among splenocytes from the treated animals.
NXS2 Cells (2.5×10^5 in 100 μL of PBS) were transplanted into syngeneic 8-weeks old female A/J mice (Harlan Laboratories, Gannat, France) i.v., to induces liver metastasis 6. Mice received either mAb 8B6 (25 μg, i.v.) or mAb P84 (200 μg, i.p.) twice a week for 3 consecutive weeks beginning 3 days after tumor cell injection. Isotretinoin was given orally diluted in Ora-Plus® at 10 mg/kg daily for 5 consecutive days, starting week 3 after tumor cell challenge. Mice were euthanized on day 27 post-tumor challenge. Anti-tumor efficacy was evaluated by liver weight of the fresh specimen as described previously 6.

Assay [1] deals with CD47. The assay can be described thus: CD47 cell-surface expression in human NB cell lines in vitro, flow cytometry. The following applies: human NB cell lines IMR5, LAN1; 72 hours incubation; FIG. 2A-C. It is filed as cell-based. How it is done: (§1) FIG. 2. Both O-acetyl GD2-specific monoclonal antibody 8B6 and 13-cis-RA exposures induce CD47 phagocytosis checkpoint up-regulation in NB cells in vitro. The NB cells IMR5, LAN1 and NXS2 were respectively incubated for 72 hours with (A) 13-cis-RA, (B) mAb 8B6, and (C) 13-cis-RA plus mAb 8B6, as indicated. After incubation, CD47 cell surface expression was analyzed by flow cytometry analysis. […] Data are presented as the mean±SEM ([…]; **p<0.01; ***p<0.001; Mann-Whitney test).
(§2) We next interrogate the impact of mAb 8B6, used alone or in combination with 13-cis-RA, on CD47 cell-surface expression in human NB cell line. After 72 hours incubation, cells were harvested, stained with a CD47-specific mAb and then subjected to flow cytometry analysis. […] The tested treatments had little impact on CD47 NXS2 cell-surface expression (FIG. 2A-C).
(In general: Flow cytometry measures light scatter and fluorescence of single cells or particles in a stream.)

Assay [2] deals with CD47. Briefly: CD47 cell-surface expression in NXS2 cells in vitro, flow cytometry. Type of assay: cell-based, mouse. The following applies: 72 hours incubation, FIG. 2A-C. How it is done: as §1, §2

Entries after “also recorded” stand apart in the source; their conditions may differ.

As for `CC1=C(/C=C/C(C)=C/C=C/C(C)=C\C(=O)O)C(C)(C)CCC1` [13-cis-RA, 13-cis-retinoic acid], the liver weight in the assay on NXS2 cells (FIG. 1B, day 27 after i.v. NXS2 inoculation, 8 mice/group, 8B6 i.v. days 3,7,10,14,17,21, 13-cis-RA 10 mg/kg per os) turned out to be 1.19 ± 0.0 g; with NXS2 cells (FIG. 4B, day 27, 8B6 25 μg i.v., P84 i.p. days 3,7,10,14,17,21, 13-cis-RA 10 mg/kg per os days 17-21) it was 1.95 ± 0.12 g. For the same compound, the values for the CD47 cell-surface expression result in the assay with CD47 [1] and in the assay with CD47 [2] were “induces up-regulation of CD47; also recorded: induced CD47 up-regulation” and “induces up-regulation of CD47”, respectively.
